Target: T1, MCRA (myosin-cross-reactive antigen; FAD-dependent fatty acid hydratase) (Bifidobacterium breve, UniProt F1CWI2)
T1 construct: 1878 bp gene), N-terminal 6x His tag, pET28 (pBBI2), E. coli BL21 Star, HisTrap purified, ~66 kDa on SDS-PAGE; primers begin at MYYSSGNYE
T1 sequence (F1CWI2 1-625): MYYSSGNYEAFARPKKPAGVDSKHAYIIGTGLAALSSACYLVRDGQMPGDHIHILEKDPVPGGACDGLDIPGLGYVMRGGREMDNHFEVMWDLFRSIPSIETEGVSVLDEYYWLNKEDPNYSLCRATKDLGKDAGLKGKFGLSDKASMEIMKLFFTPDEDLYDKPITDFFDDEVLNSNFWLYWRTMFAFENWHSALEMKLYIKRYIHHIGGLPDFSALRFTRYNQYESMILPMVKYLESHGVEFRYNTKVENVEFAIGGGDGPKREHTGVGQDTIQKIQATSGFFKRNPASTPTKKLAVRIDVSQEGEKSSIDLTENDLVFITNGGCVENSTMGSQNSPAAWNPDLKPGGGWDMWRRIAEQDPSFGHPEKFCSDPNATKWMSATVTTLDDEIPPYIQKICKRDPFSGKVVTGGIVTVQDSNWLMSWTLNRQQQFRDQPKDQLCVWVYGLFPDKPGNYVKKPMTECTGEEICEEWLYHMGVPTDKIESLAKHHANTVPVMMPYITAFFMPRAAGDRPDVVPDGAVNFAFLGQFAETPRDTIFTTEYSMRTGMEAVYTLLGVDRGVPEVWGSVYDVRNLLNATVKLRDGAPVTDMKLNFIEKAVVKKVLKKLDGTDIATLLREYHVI
Test: UV-Vis absorption spectrum of purified protein and of supernatant after heat denaturation
Format: binding
Details: non-covalent, co-purified; flavin-like maxima ~450 and 370 nm; FAD identity rests on spectrum and analogy to S. pyogenes MCRA (FMN also run as reference)

SMILES: Cc1cc2nc3c(=O)[nH]c(=O)nc-3n(C[C@H](O)[C@H](O)[C@H](O)COP(=O)(O)OP(=O)(O)OC[C@H]3O[C@@H](n4cnc5c(N)ncnc54)[C@H](O)[C@@H]3O)c2cc1C [FAD]
- UV-Vis absorption spectrum of purified protein and of supernatant after heat den: flavin cofactor is released in the solution upon protein denaturation by heat
